Values of other authors as cited in patent publication US8017623B2 (Trinity Laboratories, Inc., priority 2008, dated 2011).
Structures can show the parent of a compound that is named as a salt. Where two headings read alike, the source gives them in different places.

What was measured:
[1] = for peak plasma dextromethorphan concentration (mean) / peak plasma dextromethorphan concentrations (range): chronic oral dosing of 120 mg daily, divided doses
females = settings: for mean plasma bromide concentration at the end of the treatment: females, three menstrual cycles
[2] = rat, normal
thyroid = settings: rats, normal chloride intake
thyroid gland = settings: rats fed diets containing 4800 or 19200 ppm; from 3 days, constant over 12 weeks

With COc1ccc2c(c1)[C@]13CCCC[C@@H]1[C@H](C2)N(C)CC3 [Dextromethorphan Hydrobromide] as the molecule, how does the solubility (at 20° C.) read?
The solubility was 1.5%.

What about the solubility (at 85° C.) of the same molecule?
Its solubility is 25%.

And the “solubility” value (below 20° C.)?
Its value is “sparingly soluble”.

What does the source list for COc1ccc2c(c1)[C@]13CCCC[C@@H]1[C@H](C2)N(C)CC3 [Dextromethorphan, 3-methoxy-17-methyl-9a, 13a, 14 a-morphinan]?
conjugated dextrorphan excreted ([1]; 24 hour period): up to 30%; dose excreted unchanged in the urine ([1]; 24 hour period): less than 2.5%; peak plasma dextromethorphan concentration (mean) ([1]; extensive metabolizers): 2.4 ng/mL; peak plasma dextromethorphan concentrations (range) ([1]; extensive metabolizers): 0.5 to 5.9 ng/mL; peak plasma dextromethorphan concentration (mean) ([1]; poor metabolizers): 207 ng/mL; peak plasma dextromethorphan concentrations (range) ([1]; poor metabolizers): 182 to 231 ng/mL; peak concentration in serum ([1]; single 20 mg oral dose): 1.8 ng/mL; time of peak serum concentration ([1]; single 20 mg oral dose): 2.5 h

What does the source list for Br [bromide]?
quantitative analysis of the electroencephalogram (EEG) (females; females receiving 9 mg Br/kg/day): only a marginal effect; serum thyroxine, free thyroxine, triiodothyronine, thyrotropine and thyroxine-binding globulin (females; females, 0, 4 and 9 mg Br/kg/day): In none of the three groups were significant changes observed; mean plasma bromide concentration at the end of the treatment (females; 4 mg Br/kg/day): 3.22 mmol/L; mean plasma bromide concentration at the end of the treatment (females; 9 mg Br/kg/day): 7.99 mmol/L; half-life [2]: 72 h; NOAEL based on effects on the thyroid (thyroid): 240 ppm bromide; NOAEL based on effects on the thyroid (thyroid; equivalent dose): 12 mg bromide/kg bw/day

For [Br-].[Na+] [sodium bromide], which thyroxine concentrations (thyroid gland) is on record?
The thyroxine concentrations was “significantly decreased”.

And the “medical history, physical examination, haematology, clinical chemistry and urine analyses” value (healthy volunteers; 4 or 9 mg Br/kg/day, except for incidental nausea)?
Its value is “no changes were observed”.

What about the “serum thyroxine and triiodothyronine at the end of the study compared to pre-administration values” (healthy volunteers; females receiving 9 mg Br/kg/day, concentrations remained within normal limits) of the same molecule?
Its value is “significant increase”.

What about the “mean plasma bromide concentration at the end of treatment” value (healthy volunteers; females, 4 mg Br/kg/day oral, three full cycles) of the same molecule?
Its value is 3.05 mmol/L.

What about the “mean plasma bromide concentration at the end of treatment” value (healthy volunteers; females, 9 mg Br/kg/day oral, three full cycles) of the same molecule?
The value was 4.93 mmol/L.

What about the “mean plasma bromide concentration at the end of treatment” value (healthy volunteers; males, 4 mg Br/kg/day oral, 12 weeks) of the same molecule?
Its value is 2.14 mmol/L.

What about the “mean plasma bromide concentration at the end of treatment” value (healthy volunteers; males, 9 mg Br/kg/day oral, 12 weeks) of the same molecule?
Its value is 4.30 mmol/L.

What about the effect on reproduction (rats; 1200 ppm) of the same molecule?
The effect on reproduction was “no effects on reproduction were observed”.

What about the effect on reproduction (rats; 4800 ppm) of the same molecule?
The effect on reproduction was “fertility and viability of the offspring were reduced”.

What about the effect on reproduction (rats; 19200 ppm (highest dose level)) of the same molecule?
The effect on reproduction was “complete infertility”.

What about the “NOAEL based on effects on the thyroid” value (thyroid) of the same molecule?
The value was 300 ppm sodium bromide.
